PMC5259778, “Candidate pheromone receptors of codling moth Cydia pomonella respond to pheromones and kairomones” (Scientific Reports, 2017)

Molecular target: CpomOrco + OR6a (Cydia pomonella, UniProt H9A5M1)
Experiment: Calcium imaging of HEK293T cells expressing CpomOrco + OR6a
Format: cell-based
Protocol: HEK293T cells were grown in HEK cell media [Dulbecco’s modified Eagle’s medium containing 10% fetal bovine serum (MP Biomedicals, Solon, OH, USA), 2.0 mM L-glutamine, and 100 μg/mL Penicillin/Streptomycin (Invitrogen)] at 37 °C and 5% CO2. To test transient expression of CpomORs for calcium imaging or patch-clamp recording experiments, 35-mm petri dishes containing semi-confluent HEK293T cells were transiently transfected. To transfect cells with CpomOrco, we used 1.0 μg of pcDNA5/TO/CpomOrco DNA. In order to promote expression of the OR[51], we used double aliquots for pcDNA5/TO/CpomOR DNAs (2.0 μg), combined with 1.0 μg of pcDNA5/TO/CpomOrco for co-transfections (CpomOrco + ORs). To report expression for calcium imaging experiments, 1.0 μg of a separate plasmid DNA [pEBFP2-Nuc, a gift from Robert Campbell (Addgene plasmid # 14893[52])] carrying the coding sequence for a blue fluorescent protein (BFP) was used. In patch-clamp recordings, 1.0 μg of a separate plasmid DNA (pXOOM, Clontech) carrying the coding sequence for a green fluorescent protein (GFP) was used to report expression. In order to report candidate OR-expressing cells, expression of both fluorescent reporter genes was under the regulation of the same promoter for CpomOR genes (CMV). Transfection DNAs were dissolved in 100 μL sterile DMEM, mixed with 3.0 μL Calfectin (SignaGen, Rockville, MD, USA) following the recommended protocol. To estimate transfection efficiency, a parallel transfection was conducted using the positive control vector pcDNA5/TO/LACZ (Invitrogen) and staining with 0.1% XGal[53].
Transfections were conducted overnight. HEK cell media was replaced with 1.0 mL fresh media to incubate cells at 37 °C for up to 6 h, at which point part of the cell culture was spread in the middle of a 35-mm plate as individual cells or small clusters. After 12 h of incubation at 37 °C and 5% CO2, cells were rinsed at the sides with 2.0 mL fresh HEK media. Cells were allowed to recover for at least 1 h prior to calcium imaging.
To test activation of olfactory receptors, CpomOrco or CpomOrco + ORs HEK293T cells were incubated for 1 h at room temperature in 0.5–1.0 mL HEK cell Ringer (mM: 140 NaCl, 5.0 KCl, 1.0 CaCl2, 1.0 MgCl2, 10 HEPES, 10 Glucose, pH 7.5) containing the fluorescent calcium indicator Fluo-4AM (Invitrogen) at 5–15 μM prepared with 0.2–0.06% Pluronic F-127 (Invitrogen). After incubation, the buffer was removed and cells were rinsed with 4.0 mL fresh HEK Ca^++ Ringer (mM: 140 NaCl, 2.0 CaCl2, 10 HEPES, pH 7.5), and placed on the stage of an inverted microscope (Olympus IX-71, Olympus Corp., Tokyo, Japan) equipped with a cooled CCD camera (ORCA R2, Hamamatsu, Hamamatsu City, Japan). Cells were continuously superfused with Ca^++ Ringer using two gravity fed perfusion contours. The […] contour washing the cells (~250 μL/min) was switched rapidly to the stimulus contour using a multi-channel rapid solution changer (RSC-160, Bio-Logic, Claix, France) under the software control of Clampex 9 (Molecular Devices, Sunnyvale, CA, USA).
Fluorescence imaging was performed using Imaging Workbench 6 software (INDEC BioSystems, Santa Clara, CA, USA). Each cell was assigned a region of interest (ROI) and changes in fluorescence intensity within each ROI were measured and expressed as the fractional change in fluorescence intensity (dF) or in some cases as dF/F0 where F0 is the basal fluorescence level before agonist application. […] Continuous traces of multiple responses were compensated for slow drift of the baseline fluorescence when necessary. All recordings were performed at room temperature (22–25 °C).
HEK293T cells expressing CpomOrco + OR6a, CpomOrco + OR3 and CpomOrco + OR1 were stimulated with an array of compounds such as: potential insect pheromone compounds and plant volatile synergists active on the olfactory system and behaviour of the codling moth[1][25], non-host plant volatiles active on other tortricids, the methyl pear-ester[33] […]

Chain of CpomOrco + OR6a (H9A5M1 entry or part of it): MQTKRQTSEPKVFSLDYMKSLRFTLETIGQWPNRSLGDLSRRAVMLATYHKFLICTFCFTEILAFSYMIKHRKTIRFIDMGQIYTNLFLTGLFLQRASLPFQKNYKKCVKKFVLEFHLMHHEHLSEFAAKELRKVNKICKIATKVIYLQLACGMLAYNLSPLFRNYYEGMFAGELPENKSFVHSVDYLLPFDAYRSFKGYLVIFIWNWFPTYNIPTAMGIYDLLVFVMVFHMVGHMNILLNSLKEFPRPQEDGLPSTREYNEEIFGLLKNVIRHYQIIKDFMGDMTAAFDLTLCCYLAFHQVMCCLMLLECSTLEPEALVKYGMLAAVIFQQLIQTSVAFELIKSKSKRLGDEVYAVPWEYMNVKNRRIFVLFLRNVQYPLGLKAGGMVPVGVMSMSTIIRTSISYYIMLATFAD
Chain of CpomOrco + OR6a (H9A5M2 entry or part of it, further chain): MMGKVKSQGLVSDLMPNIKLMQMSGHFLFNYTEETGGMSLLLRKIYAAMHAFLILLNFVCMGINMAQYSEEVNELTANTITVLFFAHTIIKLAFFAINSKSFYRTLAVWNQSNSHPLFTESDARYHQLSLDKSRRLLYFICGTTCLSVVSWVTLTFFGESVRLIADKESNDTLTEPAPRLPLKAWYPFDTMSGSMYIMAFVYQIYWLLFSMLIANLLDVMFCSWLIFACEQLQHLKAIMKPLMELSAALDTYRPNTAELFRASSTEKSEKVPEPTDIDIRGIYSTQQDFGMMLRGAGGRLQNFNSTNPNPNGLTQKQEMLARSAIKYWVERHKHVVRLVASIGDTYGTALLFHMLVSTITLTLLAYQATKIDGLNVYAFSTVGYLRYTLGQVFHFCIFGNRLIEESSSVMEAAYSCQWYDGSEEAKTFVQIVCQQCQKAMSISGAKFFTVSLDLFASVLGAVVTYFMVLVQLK

Row | SMILES | amplitude of the calcium response (mean of the maximum response ± SEM) (100 μM, n = 70) [dF] | amplitude of the calcium response (mean of the maximum response ± SEM) (250 μM positive control, n = 68) [dF] | amplitude of the calcium response (mean of the maximum response ± SEM) (50 μM, n = 70) [dF] | amplitude of the calcium response (mean of the maximum response ± SEM) (1500 μM, n = 68) [dF] | Emax (HEK-293T, vs 250 μM VUAA3, read-out: amplitude at saturating concentrations relative to the positive control amplitude) [%] | EC50 (calcium response normalized to 250 μM VUAA3) [µM]
1 | CCn1c(SCC(=O)Nc2ccc(C(C)C)cc2)nnc1-c1ccncc1 [VUAA3, acetamide,2-[[4-ethyl-5-(4-pyridinyl)-4H-1,2,4-triazol-3-yl]thio]-N-[4-(1-methylethyl)phenyl]-] | 37.96 ± 20.98 | 69.71 ± 27.29 |  |  |  | 
2 | C/C=C/C=C/CCCCCCCOC(C)=O [codlemone acetate, (E,E)-8,10-dodecadien-1-yl acetate] |  |  | 12.04 ± 8.17 | 18.91 ± 10.31 | ~27 | 51.8 ± 13.2
3 | C/C=C/C=C/CCCCCCCO [codlemone, (E,E)-8,10-dodecadien-1-ol] |  |  | 0.38 ± 1.84 | 5.7 ± 3.64 |  | 
